For assay [1], the system named is dopaminergic neuronal cell line. Nature of the assay: High glutamate-induced oxidative stress assay (HGOS). The format is cell-based. The settings on record: Mus musculus; 30 mM glutamate, 16 hrs; read-out: EC50, protection against HGOS cell injury and cell death. The gist of the method:
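Mouse dopaminergic cells were grown 72 h at 33° C, washed into HBSS, then exposed to compounds in glucose-free DMEM with 1 mM glucose and 30 mM glutamate for 16 h at 37° C. Viability was read as Cell Tracker Green fluorescence at 485/538 nm after 30 min of 5 μM dye loading.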

For the next assay, the system named is FRDA fibroblasts. Nature of the assay: FRDA fibroblast assay for protection from oxidative stress (BSO). Type of assay: cell-based. The note with it: Homo sapiens, preincubation 24 h before 1 mM BSO, read-out: EC50, reduced cell death in FRDA fibroblasts compared to untreated FRDA fibroblasts. From the text: A cellular assay using FRDA-patient derived fibroblasts (as described by Jauslin, M L et al, Human Molecular Genetics 11; 3055-3063 (2002)); was used to determine the protective effects of the test compounds by analyzing survival of dermal fibroblasts taken from FRDA patients and unaffected normal donors under conditions of partial GSH depletion. Exposure of FRDA fibroblasts to BSO (L-buthionine (S,R)-sulfoximine) under conditions of restricted selenium causes depletion of cellular glutathione (GSH) and severe plasma membrane damage leading to cell death. Preincubation with the test compounds before the addition of BSO was used to determine if they could protect FRDA cells from BSO-mediated cell death.
Primary fibroblasts were derived from donors with a molecular diagnosis of FRDA and control donors with no mitochondria) disease. Lines F2, C2 and C3 were obtained from Coriell Cell Repositories (Camden, N.J., USA; catalog nos GM04078, GM 08402 and GM08399, respectively). All cell types were diagnosed at the molecular level for intronic GAA triplet repeat length in the frataxin gene using a PCR-based method, according to methods known in the art. […] The cells were seeded in 96-well plates at a density of 4000 cells per 100 pI in growth medium consisting of 25% (v/v) M199 EBS and 64% (v/v) MEM EBS without phenol red (Bioconcept, Allschwil, Switzerland) supplemented with 10% (v/v) fetal calf serum (PAA Laboratories, Linz, Austria), 100 U/ml penicillin, 100 μg/ml streptomycin (PAA Laboratories, Linz, Austria), 10 μg/ml insulin (Sigma, Buchs, Switzerland), 10 ng/ml EGF (Sigma, Buchs, Switzerland), 10 ng/ml bFGF (PreproTech, Rocky Hill, N.J., USA) and 2 mM glutamine (Sigma, Buchs, Switzerland). The cells were incubated in the presence of the various test compounds for 24 h before addition of 1 mM BSO (L-buthionine (S,R)-sulfoximine).
Cell viability was measured after the first signs of toxicity appeared in the BSO-treated controls (typically after 16-48 h). The cells were stained for 60 min at room temperature in PBS with 1.2 μm calceinAM and 4 pm ethidium homodimer (Live/Dead assay, Molecular Probes, Eugene, Oreg., USA). Fluorescence intensity was measured with a Gemini Spectramax XS spectrofluorimeter (Molecular Devices, Sunnyvale, Calif., USA) using excitation and emission wavelengths of 485 and 525 nm, respectively.

Each structure is given as a SMILES string.

The text below walks through data of patent publication US8791155B2, “Chroman derivatives” (Edison Pharmaceuticals, Inc., priority 2003, dated 2014).

What is called EC50 is the concentration giving half of the maximal effect.

`Cc1c(O)cc2c(c1C)OC(C)(CC/C=C1\SC(=O)NC1=O)CC2` (centres unmarked) [5-[3-(6-Hydroxy-2,7,8-trimethyl-chroman-2-yl)-propylidene]-thiazolidine-2,4-dione]: the figures for the EC50 (in assay [1]; in the assay on FRDA fibroblasts) were less than 5 µM and 0.01 to 6 µM, respectively. In the case of `C=CCSCc1c(O)c(C)c(C)c2c1CCC(C)(C)O2` [5-Allylsulfanylmethyl-2,2,7,8-tetramethyl-chroman-6-ol], the EC50 in assay [1] was less than 5 µM; with FRDA fibroblasts, 0.01 to 6 µM.

Take `COC(=O)c1ccc(-c2c(O)c(C)c(C)c3c2CCC(C)(C)O3)cc1` [4-(6-Hydroxy-2,2,7,8-tetramethyl-chroman-5-yl)-benzoic acid methyl ester]: the EC50 in assay [1] is less than 5 µM.

As to `CC1=NN(c2ccccc2)C(=O)C1C(CCC1(C)CCc2cc(O)c(C)c(C)c2O1)C1C(=O)N(c2ccccc2)N=C1C` (centres unmarked) [1-(6-Hydroxy-2,7,8-trimethyl-chroman-2-yl)-3-bis-(5-methyl-2-phenyl-2,4-dihydro-pyrazol-3-one-4-yl)-propane], the results for the EC50 (in assay [1]; with FRDA fibroblasts) were less than 5 µM and 0.01 to 6 µM, respectively. On to `Cc1c(C)c2c(c(C)c1O)CCC(C)(C=C(Br)Br)O2` (centres unmarked) [2-(2,2-Dibromo-vinyl)-2,5,7,8-tetramethyl-chroman-6-ol], for which the EC50 in assay [1] is less than 5 µM.
